Test results published in patent US7578968B1, “Microbiological control in oil or gas field operations” (Albemarle Corporation, priority 2002, dated 2009).

Legend:
Type in all cases: physicochemical
[1] = Reversion of HEDP to orthophosphate by oxidizing biocides; details: for Phosphate (orthophosphate from HEDP): oxidant 10 ppm as Cl2, pH 9.1, 23° C.
Experimental: (§1) The oxidants studied consisted of WELLGUARD 909 biocide, bleach (NaOCl), and activated sodium bromide (NaOCl and NaBr). The WELLGUARD 909 biocide and bleach were added directly. Activated sodium bromide was prepared in situ by introducing 20 ppm bromide ion to the stock solution followed by addition of bleach. The phosphonates used in this work consisted of AMP (aminomethylene phosphonic acid), HEDP (hydroxyethylidene diphosphonic acid), and PBTC (phosphonobutanetricarboxylic acid). These materials were commercial samples (Mayoquest 1320, 1500, and 2100, respectively) obtained from Callaway Chemical Co. (Smyrna, Ga.).
(§2) Solutions consisting of 5 ppm scale inhibitor (as active phosphonate) in the presence of 10 ppm oxidant (as Cl2) were prepared as follows. To 900 mL deionized water were added appropriate stock solutions containing phosphonate, alkalinity (NaHCO3), and calcium hardness (CaCl2). The pH was adjusted to 9.1 with 5% aq. NaOH and diluted up to 1 L in a dark amber bottle. A dose of oxidant was added to achieve a residual of 10 ppm. The solutions were then periodically monitored for phosphonate reversion by determining the reversion to orthophosphate (Hach method 490). The oxidant residual was also periodically monitored using the DPD method (Hach method 80). All of this work was performed at room temperature (23° C.). The initial active phosphonate content was confirmed by conversion to orthophosphate via UV/persulfate oxidation followed by a conventional phosphate analysis (Hach method 501). A conversion factor was applied to the phosphate measurement to determine the initial amount of active phosphonate present as follows: AMP, 1.05; HEDP, 1.085; PBTC, 2.85.

[2] = Comparative study of oxidation reduction potentials (ORP) and halogen residuals in cooling tower water
Experimental: The oxidants studied consisted of WELLGUARD 909 biocide, STABREX biocide (stabilized NaBr+NaOCl), bleach (NaOCl), and activated sodium bromide (NaOCl and NaBr).
Stock solutions of the biocides were prepared at 1000 ppm halogen residual concentration (as Cl2) in brown glass bottles using deionized water for dilution. Solution activities were confirmed using the DPD method and a Hach Co. (Loveland, Colo.) DR/2000 spectrophotometer.
Aliquots of the stock solutions above were added to 1000 mL of cooling tower water that had been pulled from a cooling tower. A 1000 mL beaker was charged with 1000 mL of cooling tower water and stirred while measuring ORP with a Brinkmann Metrohm 716 DMS Titrino automatic titrator. It took about 45 minutes for the sample to equilibrate—the ORP reading would gradually decline to a reading of about 300 mV. The sample was deemed to have equilibrated when the change in the ORP reading was less than or equal to 1 unit/minute. At this point, 0.5 g of stock solution (nominal halogen residual=0.5 ppm) was added and the mixture allowed to equilibrate once again. A sample was pulled to determine free and total halogen residuals and then 0.5 g additional stock solution was added and the process repeated. The following aliquots were added during the experiment: 0.5 g, 1.0 g, 2.0 g, 3.0 g, 4.0 g, 6.0 g, 8.0 g, 10.0 g.

[3] = Reversion of AMP to orthophosphate by oxidizing biocides; details: for Phosphate (orthophosphate from AMP): oxidant 10 ppm as Cl2, pH 9.1, 23° C.
Experimental: as §1, §2

[4] = Reversion of PBTC to orthophosphate by oxidizing biocides; details: for Phosphate (orthophosphate from PBTC): oxidant 10 ppm as Cl2, pH 9.1, 23° C.
Experimental: as §1, §2

[5] = nominal free/total ppm (as Cl2): STABREX 0.49/0.51, WELLGUARD 909 0.42/0.52, Bleach 0.50, Activated NaBr 0.48/0.52
[6] = nominal free/total ppm: STABREX 0.98/1.04, WELLGUARD 909 0.85/1.04, Bleach 1.00, Activated NaBr 0.97/1.05
[7] = nominal free/total ppm: STABREX 2.00/2.11, WELLGUARD 909 1.72/2.12, Bleach 2.04, Activated NaBr 1.97/2.14
[8] = nominal free/total ppm: STABREX 3.04/3.20, WELLGUARD 909 2.62/3.22, Bleach 3.09, Activated NaBr 2.99/3.25
[9] = nominal free/total ppm: STABREX 4.09/4.32, WELLGUARD 909 3.53/4.20, Bleach 4.17, Activated NaBr 4.03/4.39
[10] = nominal free/total ppm: STABREX 6.26/6.60, WELLGUARD 909 5.40/6.63, Bleach 6.37, Activated NaBr 6.17/6.71
[11] = nominal free/total ppm: STABREX 8.47/8.94, WELLGUARD 909 7.31/8.98, Bleach 8.63, Activated NaBr 8.35/9.08
[12] = nominal free/total ppm: STABREX 10.74/11.33, WELLGUARD 909 9.26/11.38, Bleach 10.93, Activated NaBr 10.58/11.51

Actual Residual, ppm Free [2, 5]: 0.13 ppm | Actual Residual, ppm Total [2, 5]: 0.34 ppm | ORP Reading, mV [2, 5]: 500 mV | Actual Residual, ppm Free [2, 6]: 0.29 ppm | Actual Residual, ppm Total [2, 6]: 0.48 ppm | ORP Reading, mV [2, 6]: 620 mV | Actual Residual, ppm Free [2, 7]: 1.12 ppm | Actual Residual, ppm Total [2, 7]: 1.29 ppm | ORP Reading, mV [2, 7]: 659 mV | Actual Residual, ppm Free [2, 8]: 1.88 ppm | Actual Residual, ppm Total [2, 8]: 2.08 ppm | ORP Reading, mV [2, 8]: 672 mV | Actual Residual, ppm Free [2, 9]: 2.98 ppm | Actual Residual, ppm Total [2, 9]: 3.43 ppm | ORP Reading, mV [2, 9]: 678 mV | Actual Residual, ppm Free [2, 10]: 5.24 ppm | Actual Residual, ppm Total [2, 10]: 5.68 ppm | ORP Reading, mV [2, 10]: 683 mV | Actual Residual, ppm Free [2, 11]: 7.68 ppm | Actual Residual, ppm Total [2, 11]: 8.16 ppm | ORP Reading, mV [2, 11]: 685 mV | Actual Residual, ppm Free [2, 12]: 10.08 ppm | Actual Residual, ppm Total [2, 12]: 10.78 ppm | ORP Reading, mV [2, 12]: 689 mV
SMILES: [Na+].[O-]Cl [Bleach, NaOCl]
Cl2 (oxidant residual) ([1]; HEDP 5 ppm, initial oxidant 10 ppm as Cl2, pH 9.1, 23° C., 400 minutes): 10.6 ppm | Phosphate (orthophosphate from HEDP) ([1]; HEDP 5 ppm, 20 minutes): 0 ppm | Phosphate (orthophosphate from HEDP) ([1]; HEDP 5 ppm, 40 minutes): 0 ppm | Phosphate (orthophosphate from HEDP) ([1]; HEDP 5 ppm, 70 minutes): 0.2 ppm | Phosphate (orthophosphate from HEDP) ([1]; HEDP 5 ppm, 100 minutes): 0.25 ppm | Phosphate (orthophosphate from HEDP) ([1]; HEDP 5 ppm, 130 minutes): 0.31 ppm | Phosphate (orthophosphate from HEDP) ([1]; HEDP 5 ppm, 190 minutes): 0.61 ppm | Phosphate (orthophosphate from HEDP) ([1]; HEDP 5 ppm, 220 minutes): 0.65 ppm | Phosphate (orthophosphate from HEDP) ([1]; HEDP 5 ppm, 250 minutes): 0.39 ppm | Phosphate (orthophosphate from HEDP) ([1]; HEDP 5 ppm, 280 minutes): 0.41 ppm | Phosphate (orthophosphate from HEDP) ([1]; HEDP 5 ppm, 310 minutes): 0.58 ppm | Phosphate (orthophosphate from HEDP) ([1]; HEDP 5 ppm, 340 minutes): 0.65 ppm | Phosphate (orthophosphate from HEDP) ([1]; HEDP 5 ppm, 370 minutes): 0.84 ppm | Phosphate (orthophosphate from HEDP) ([1]; HEDP 5 ppm, 400 minutes): 0.65 ppm | Phosphate (orthophosphate from HEDP) ([1]; HEDP 5 ppm, 460 minutes): 0.95 ppm | Phosphate (orthophosphate from HEDP) ([1]; HEDP 5 ppm, 520 minutes, maximum liberable phosphate: WELLGUARD 909 4.20, Activated NaBr 4.40, Bleach 4.80 ppm): 0.94 ppm | relative amounts of reversion ([1]; HEDP, after 520 minutes): 19.6% | loss in biocide residual ([2]; conditions of Table 3): significant loss of residual during initial stages of biocide addition | Cl2 (oxidant residual) ([3]; AMP 5 ppm, initial oxidant 10 ppm as Cl2, pH 9.1, 23° C., 460 minutes): 9.4 ppm | Phosphate (orthophosphate from AMP) ([3]; AMP 5 ppm, 20 minutes): 0.35 ppm | Phosphate (orthophosphate from AMP) ([3]; AMP 5 ppm, 40 minutes): 0.7 ppm | Phosphate (orthophosphate from AMP) ([3]; AMP 5 ppm, 70 minutes): 0.53 ppm | Phosphate (orthophosphate from AMP) ([3]; AMP 5 ppm, 100 minutes): 0.75 ppm | Phosphate (orthophosphate from AMP) ([3]; AMP 5 ppm, 130 minutes): 0.8 ppm | Phosphate (orthophosphate from AMP) ([3]; AMP 5 ppm, 190 minutes): 0.77 ppm | Phosphate (orthophosphate from AMP) ([3]; AMP 5 ppm, 220 minutes): 0.59 ppm | Phosphate (orthophosphate from AMP) ([3]; AMP 5 ppm, 250 minutes): 0.64 ppm | Phosphate (orthophosphate from AMP) ([3]; AMP 5 ppm, 280 minutes): 0.83 ppm | Phosphate (orthophosphate from AMP) ([3]; AMP 5 ppm, 310 minutes): 0.82 ppm | Phosphate (orthophosphate from AMP) ([3]; AMP 5 ppm, 340 minutes): 0.8 ppm | Phosphate (orthophosphate from AMP) ([3]; AMP 5 ppm, 370 minutes): 0.81 ppm | Phosphate (orthophosphate from AMP) ([3]; AMP 5 ppm, 400 minutes): 0.79 ppm | Phosphate (orthophosphate from AMP) ([3]; AMP 5 ppm, 520 minutes): 0.97 ppm | Phosphate (orthophosphate from AMP) ([3]; AMP 5 ppm, 1360 minutes): 0.91 ppm | averaged amounts of phosphonate reversion ([3]; AMP, Table 4 averages): 18.7% | Phosphate, average ([3]; AMP, average 100-1360 minutes, maximum liberable phosphate: WELLGUARD 909 4.58, Activated NaBr 4.18, Bleach 4.22 ppm): 0.79 ppm | residual oxidant (as Cl2) ([4]; PBTC 5 ppm, initial oxidant 10 ppm as Cl2, pH 9.1, 23° C., 390 minutes (second 390 line)): 9.5 ppm | Phosphate (orthophosphate from PBTC) ([4]; PBTC 5 ppm, 30 minutes): 0 ppm | Phosphate (orthophosphate from PBTC) ([4]; PBTC 5 ppm, 60 minutes): 0 ppm | Phosphate (orthophosphate from PBTC) ([4]; PBTC 5 ppm, 90 minutes): 0 ppm | Phosphate (orthophosphate from PBTC) ([4]; PBTC 5 ppm, 120 minutes): 0 ppm | Phosphate (orthophosphate from PBTC) ([4]; PBTC 5 ppm, 150 minutes): 0 ppm | Phosphate (orthophosphate from PBTC) ([4]; PBTC 5 ppm, 180 minutes): 0 ppm | Phosphate (orthophosphate from PBTC) ([4]; PBTC 5 ppm, 210 minutes): 0.12 ppm | Phosphate (orthophosphate from PBTC) ([4]; PBTC 5 ppm, 270 minutes): 0.16 ppm | Phosphate (orthophosphate from PBTC) ([4]; PBTC 5 ppm, 330 minutes): 0.05 ppm | Phosphate (orthophosphate from PBTC) ([4]; PBTC 5 ppm, 360 minutes): 0.02 ppm | Phosphate (orthophosphate from PBTC) ([4]; PBTC 5 ppm, 390 minutes (first 390 line)): 0.02 ppm | Phosphate (orthophosphate from PBTC) ([4]; PBTC 5 ppm, 1360 minutes): 0.08 ppm | average amounts of phosphonate reversion ([4]; PBTC, after 3½ hours contact and beyond): 5.2% | Phosphate, average ([4]; PBTC, average 210-1360 minutes, maximum liberable phosphate: WELLGUARD 909 1.72, Activated NaBr 1.82, Bleach 1.44 ppm): 0.075 ppm
